pIC50: −log10 of the molar value.
Target: BRD4 (Homo sapiens, UniProt O60885)
Experiment: Time Resolved Fluorescence Resonance Energy Transfer (TR-FRET) binding assay, FRET BRD4
Conditions: one of the FRET assays described (BRD4 bromodomain construct not specified); read-out: FRET BRD4 IC50

Compound	pIC50
4-{5-[(3-Fluoropyridin-2-yl)(oxan-4-yl)methyl]-3-[4-(^2H3)methyl-1-methyl-1H-1,2,3-triazol-5-yl]-5H-pyrido[3,2-b]indol-7-yl}-1λ^6,4-thiomorpholine-1,1-dione [Example 68]	> 8.30
Cc1nnn(C)c1-c1cnc2c3ccc(C4(C)CNC(=O)O4)cc3n([C@H](c3ccccc3)C3CCOCC3)c2c1 (single isomer, unassigned) [Example 9]	> 8.30
Cc1nnn(C)c1-c1cnc2c3ccc(C4(C)CNC(=O)O4)cc3n([C@H](c3ccccc3)C3CCOCC3)c2c1 (single isomer, unassigned) [Example 10]	> 8.30
Cc1nnn(C)c1-c1cnc2c3ccc(N4CCC(F)(F)CC4)cc3n(C(c3ccccc3)C3CCC(F)(F)CC3)c2c1 (single isomer, unassigned) [Example 75, 1-{5-[(4,4-Difluorocyclohexyl)(phenyl)methyl]-3-(dimethyl-1H-1,2,3-triazol-5-yl)-5H-pyrido[3,2-b]indol-7-yl}-4,4-difluoropiperidine]	> 8.30
Cc1nnn(C)c1-c1cnc2c3ccc(N4CCC(F)(F)CC4)cc3n(C(c3ccccc3)C3CCC(F)(F)CC3)c2c1 (single isomer, unassigned) [Example 76, 1-{5-[(4,4-Difluorocyclohexyl)(phenyl)methyl]-3-(dimethyl-1H-1,2,3-triazol-5-yl)-5H-pyrido[3,2-b]indol-7-yl}-4,4-difluoropiperidine]	> 8.30
Cc1nnn(C)c1-c1cnc2c3ccc(N4CCC(C(F)(F)F)CC4)cc3n(C(c3ccccc3)C3CCC(F)(F)CC3)c2c1 (single isomer, unassigned) [Example 77, 1-{5-[(4,4-Difluorocyclohexyl)(phenyl)methyl]-3-(dimethyl-1H-1,2,3-triazol-5-yl)-5H-pyrido[3,2-b]indol-7-yl}-4-(trifluoromethyl)piperidine]	> 9.00
Cc1nnn(C)c1-c1cnc2c3ccc(N4CCC(C(F)(F)F)CC4)cc3n(C(c3ccccc3)C3CCC(F)(F)CC3)c2c1 (single isomer, unassigned) [Example 78, 1-{5-[(4,4-Difluorocyclohexyl)(phenyl)methyl]-3-(dimethyl-1H-1,2,3-triazol-5-yl)-5H-pyrido[3,2-b]indol-7-yl}-4-(trifluoromethyl)piperidine]	> 8.30
Cc1nnn(C)c1-c1cnc2c3cc(N4C[C@@H](C)O[C@@H](C)C4)ccc3n(C(c3ccccc3)C3CCOCC3)c2c1 (stereo in doubt) [Example 3, (2R,6S)-4-[3-(Dimethyl-1H-1,2,3-triazol-5-yl)-5-[(R)-oxan-4-yl(phenyl)methyl]-5H-pyrido[3,2-b]indol-8-yl]-2,6-dimethylmorpholine]	> 8.30
Cc1nnn(C)c1-c1cnc2c3ccc(-c4ccnn4C)cc3n([C@H](c3ccccc3)C3CCOCC3)c2c1 [Example 1, 1,4-Dimethyl-5-[7-(1-methyl-1H-pyrazol-5-yl)-5-[(S)-oxan-4-yl(phenyl)methyl]-5H-pyrido[3,2-b]indol-3-yl]-1H-1,2,3-triazole]	> 8.30
Cc1nnn(C)c1-c1cnc2c3ccc(-c4ccon4)cc3n([C@H](c3ccccc3)C3CCOCC3)c2c1 [Example 2, 1,4-Dimethyl-5-{5-[(S)-oxan-4-yl(phenyl)methyl]-7-(1,2-oxazol-3-yl)-5H-pyrido[3,2-b]indol-3-yl}-1H-1,2,3-triazole]	> 8.30
Cc1nnn(C)c1-c1cnc2c3cc(C4CCNCC4)ccc3n([C@H](c3ccccc3)C3CCOCC3)c2c1 [Example 4, 4-[3-(Dimethyl-1H-1,2,3-triazol-5-yl)-5-[(S)-oxan-4-yl(phenyl)methyl]-5H-pyrido[3,2-b]indol-8-yl]piperidine]	> 9.00
Cc1noc(C)c1-c1cnc2c3cc(C4CCN(C(=O)CO)CC4)ccc3n([C@H](c3ccccc3)C3CCOCC3)c2c1 [Example 6, 1-{4-[3-(Dimethyl-1,2-oxazol-4-yl)-5-[(S)-oxan-4-yl(phenyl)methyl]-5H-pyrido[3,2-b]indol-8-yl]piperidin-1-yl}-2-hydroxyethan-1-one]	> 8.30
CC(=O)N1CCC(c2ccc3c(c2)c2ncc(-c4c(C)noc4C)cc2n3[C@H](c2ccccc2)C2CCOCC2)CC1 [Example 7, 1-{4-[3-(Dimethyl-1,2-oxazol-4-yl)-5-[(S)-oxan-4-yl(phenyl)methyl]-5H-pyrido[3,2-b]indol-8-yl]piperidin-1-yl}ethan-1-one]	> 9.00
CC(=O)OCC(=O)N1CCC(c2ccc3c(c2)c2ncc(-c4c(C)nnn4C)cc2n3[C@H](c2ccccc2)C2CCOCC2)CC1 [Example 8, 2-{4-[3-(Dimethyl-1H-1,2,3-triazol-5-yl)-5-[(S)-oxan-4-yl(phenyl)methyl]-5H-pyrido[3,2-b]indol-8-yl]piperidin-1-yl}-2-oxoethyl acetate]	> 8.30
Cc1nnn(C)c1-c1cnc2c3ccc(-c4nnn[nH]4)cc3n([C@H](c3ccccc3)C3CCOCC3)c2c1 [Example 11, 5-[3-(Dimethyl-1H-1,2,3-triazol-5-yl)-5-[(S)-oxan-4-yl(phenyl)methyl]-5H-pyrido[3,2-b]indol-7-yl]-1H-1,2,3,4-tetrazole]	> 9.00
Cc1nnn(C)c1-c1cnc2c3ccc(N4CCCOC4=O)cc3n([C@H](c3ccccc3)C3CCOCC3)c2c1 [Example 12, 3-[3-(Dimethyl-1H-1,2,3-triazol-5-yl)-5-[(S)-oxan-4-yl(phenyl)methyl]-5H-pyrido[3,2-b]indol-7-yl]-1,3-oxazinan-2-one]	> 8.30
Cc1nnn(C)c1-c1cnc2c3cc(N4CCNCC4)ccc3n([C@H](c3ccccc3)C3CCOCC3)c2c1 [Example 13, 1-[3-(Dimethyl-1H-1,2,3-triazol-5-yl)-5-[(S)-oxan-4-yl(phenyl)methyl]-5H-pyrido[3,2-b]indol-8-yl]piperazine]	> 8.30
CC(=O)OCC(=O)N1CCN(c2ccc3c(c2)c2ncc(-c4c(C)nnn4C)cc2n3[C@H](c2ccccc2)C2CCOCC2)CC1 [Example 14, 2-{4-[3-(Dimethyl-1H-1,2,3-triazol-5-yl)-5-[(S)-oxan-4-yl(phenyl)methyl]-5H-pyrido[3,2-b]indol-8-yl]piperazin-1-yl}-2-oxoethyl acetate]	> 8.30
Cc1nnn(C)c1-c1cnc2c3cc(N4CCN(C5COC5)CC4)ccc3n([C@H](c3ccccc3)C3CCOCC3)c2c1 [Example 15, 1-[3-(Dimethyl-1H-1,2,3-triazol-5-yl)-5-[(S)-oxan-4-yl(phenyl)methyl]-5H-pyrido[3,2-b]indol-8-yl]-4-(oxetan-3-yl)piperazine]	> 8.30
Cc1nnn(C)c1-c1cnc2c3ccc(-c4cnn(C(C)C)c4)cc3n([C@H](c3ccccc3)C3CCOCC3)c2c1 [Example 16, 1,4-Dimethyl-5-{5-[(S)-oxan-4-yl(phenyl)methyl]-7-[1-(propan-2-yl)-1H-pyrazol-4-yl]-5H-pyrido[3,2-b]indol-3-yl}-1H-1,2,3-triazole]	> 8.30
Cc1n[nH]c(C)c1-c1ccc2c3ncc(-c4c(C)nnn4C)cc3n([C@H](c3ccccc3)C3CCOCC3)c2c1 [Example 17, 5-[7-(3,5-Dimethyl-1H-pyrazol-4-yl)-5-[(S)-oxan-4-yl(phenyl)methyl]-5H-pyrido[3,2-b]indol-3-yl]-1,4-dimethyl-1H-1,2,3-triazole]	> 9.00
[2H]C([2H])([2H])c1nnn(C)c1-c1ccc2c3ncc(-c4c(C)nnn4C)cc3n([C@H](c3ccccc3)C3CCOCC3)c2c1 [Example 18, 5-[3-(Dimethyl-1H-1,2,3-triazol-5-yl)-5-[(S)-oxan-4-yl(phenyl)methyl]-5H-pyrido[3,2-b]indol-7-yl]-4-(^2H3)methyl-1-methyl-1H-1,2,3-triazole]	> 9.00
Cc1nnn(C)c1-c1cnc2c3c(N4CCCS4(=O)=O)ccc(S(C)(=O)=O)c3n([C@H](c3ccccc3)C3CCOCC3)c2c1 [Example 19, 2-[3-(Dimethyl-1H-1,2,3-triazol-5-yl)-6-methanesulfonyl-5-[(S)-oxan-4-yl(phenyl)methyl]-5H-pyrido[3,2-b]indol-9-yl]-1λ^6,2-thiazolidine-1,1-dione]	> 9.00
Cc1nnn(C)c1-c1cnc2c3c(N4CCCCS4(=O)=O)ccc(S(C)(=O)=O)c3n([C@H](c3ccccc3)C3CCOCC3)c2c1 [Example 20, 2-[3-(Dimethyl-1H-1,2,3-triazol-5-yl)-6-methanesulfonyl-5-[(S)-oxan-4-yl(phenyl)methyl]-5H-pyrido[3,2-b]indol-9-yl]-1λ^6,2-thiazinane-1,1-dione]	> 9.00
Cc1nnn(C)c1-c1cnc2c3c(N4CCNCC4)ccc(S(C)(=O)=O)c3n([C@H](c3ccccc3)C3CCOCC3)c2c1 [Example 21, 1-[3-(Dimethyl-1H-1,2,3-triazol-5-yl)-6-methanesulfonyl-5-[(S)-oxan-4-yl(phenyl)methyl]-5H-pyrido[3,2-b]indol-9-yl]piperazine]	> 8.30
Cc1nnn(C)c1-c1cnc2c3c(N4CCN(CC(N)=O)CC4)ccc(S(C)(=O)=O)c3n([C@H](c3ccccc3)C3CCOCC3)c2c1 [Example 22, 2-{4-[3-(Dimethyl-1H-1,2,3-triazol-5-yl)-6-methanesulfonyl-5-[(S)-oxan-4-yl(phenyl)methyl]-5H-pyrido[3,2-b]indol-9-yl]piperazin-1-yl}acetamide]	> 8.30
Cc1nnn(C)c1-c1cnc2c3c(N4CCN(C5COC5)CC4)ccc(S(C)(=O)=O)c3n([C@H](c3ccccc3)C3CCOCC3)c2c1 [Example 23, 1-[3-(Dimethyl-1H-1,2,3-triazol-5-yl)-6-methanesulfonyl-5-[(S)-oxan-4-yl(phenyl)methyl]-5H-pyrido[3,2-b]indol-9-yl]-4-(oxetan-3-yl)piperazine]	> 8.30
[2H]C([2H])([2H])c1nnn(C)c1-c1cnc2c3c(N4CCS(=O)(=O)CC4)ccc(S(C)(=O)=O)c3n([C@H](c3ccccc3)C3CCOCC3)c2c1 [Example 24, 4-{6-Methanesulfonyl-3-[4-(^2H3)methyl-1-methyl-1H-1,2,3-triazol-5-yl]-5-[(S)-oxan-4-yl(phenyl)methyl]-5H-pyrido[3,2-b]indol-9-yl}-1λ^6-thiomorpholine-1,1-dione]	> 8.30
Cc1nnn(C)c1-c1cnc2c3c(N4CCN(C(=O)OC(C)(C)C)CC4)ccc(S(C)(=O)=O)c3n([C@H](c3ccccc3)C3CCOCC3)c2c1 [Example 25, tert-Butyl 4-[3-(dimethyl-1H-1,2,3-triazol-5-yl)-6-methanesulfonyl-5-[(S)-oxan-4-yl(phenyl)methyl]-5H-pyrido[3,2-b]indol-9-yl]piperazine-1-carboxylate]	> 8.30

Source: patent publication US10174024B2, “5H-pyrido[3,2-B]indole compounds as anticancer agents” (BRISTOL-MYERS SQUIBB COMPANY, priority 2015, dated 2019)
